Source: article PMC11968843, “Sulphostin-inspired N-phosphonopiperidones as selective covalent DPP8 and DPP9 inhibitors” (Nature Communications, 2025)
Several values for one entry are separate records, joined by “and”; a condition that tells them apart may be missing. Equal entries are not always repeated. Entries after “also recorded” stand apart in the source; their conditions may differ.

Columns and labels:
[1] = biological target: T1, HEK293 cell lysates (proteome-wide targets of probe 9) (Homo sapiens, UniProt P12277); experiment: Competitive ABPP / direct target identification with alkyne probe 9 in HEK293 cell lysates; type: binding, H. sapiens; details: protein CKB
T1 construct: endogenous in cells; host or cells: HEK293 cell lysate

[2] = biological target: T2, HEK293 cell lysates (proteome-wide targets of probe 9) (Homo sapiens, UniProt P31948); experiment: as above; type: binding, H. sapiens; details: protein STIP1
T2 construct: endogenous in cells; host or cells: HEK293 cell lysate

[3] = biological target: T3, HEK293 cell lysates (proteome-wide targets of probe 9) (Homo sapiens, UniProt P07814); experiment: as above; type: binding, H. sapiens; details: protein EPRS
T3 construct: endogenous in cells; host or cells: HEK293 cell lysate

[4] = biological target: T4, HEK293 cell lysates (proteome-wide targets of probe 9) (Homo sapiens, UniProt P62826); experiment: as above; type: binding, H. sapiens; details: protein RAN
T4 construct: endogenous in cells; host or cells: HEK293 cell lysate

[5] = biological target: T5, HEK293 cell lysates (proteome-wide targets of probe 9) (Homo sapiens, UniProt P13639); experiment: as above; type: binding, H. sapiens; details: protein EEF2
T5 construct: endogenous in cells; host or cells: HEK293 cell lysate

[6] = biological target: T6, HEK293 cell lysates (proteome-wide targets of probe 9) (Homo sapiens, UniProt P32119); experiment: as above; type: binding, H. sapiens; details: protein PRDX2
T6 construct: endogenous in cells; host or cells: HEK293 cell lysate

[7] = biological target: T7, HEK293 cell lysates (proteome-wide targets of probe 9) (Homo sapiens, UniProt P62424); experiment: as above; type: binding, H. sapiens; details: protein RPL7A
T7 construct: endogenous in cells; host or cells: HEK293 cell lysate

[8] = biological target: T8, HEK293 cell lysates (proteome-wide targets of probe 9) (Homo sapiens, UniProt P62805); experiment: as above; type: binding, H. sapiens; details: protein HIST1H4A
T8 construct: endogenous in cells; host or cells: HEK293 cell lysate

[9] = biological target: T9, HEK293 cell lysates (proteome-wide targets of probe 9) (Homo sapiens, UniProt Q9NR30); experiment: as above; type: binding, H. sapiens; details: protein DDX21
T9 construct: endogenous in cells; host or cells: HEK293 cell lysate

[10] = biological target: T10, HEK293 cell lysates (proteome-wide targets of probe 9) (Homo sapiens, UniProt P59998); experiment: as above; type: binding, H. sapiens; details: protein ARPC4
T10 construct: endogenous in cells; host or cells: HEK293 cell lysate

[11] = biological target: T11, HEK293 cell lysates (proteome-wide targets of probe 9) (Homo sapiens, UniProt P61978); experiment: as above; type: binding, H. sapiens; details: protein HNRNPK
T11 construct: endogenous in cells; host or cells: HEK293 cell lysate

PREP = biological target: T12, PREP (Homo sapiens, UniProt P48147); experiment: PREP biochemical inhibition assay (GP-AMC substrate, IC50); details: for IC50: GP-AMC 2 mM, 10 nM enzyme, 45 min pre-incubation at 30 °C; for PREP activity: individual replicates
T12 construct: purchased Sigma Aldrich, USA
T12 sequence (P48147 1-710): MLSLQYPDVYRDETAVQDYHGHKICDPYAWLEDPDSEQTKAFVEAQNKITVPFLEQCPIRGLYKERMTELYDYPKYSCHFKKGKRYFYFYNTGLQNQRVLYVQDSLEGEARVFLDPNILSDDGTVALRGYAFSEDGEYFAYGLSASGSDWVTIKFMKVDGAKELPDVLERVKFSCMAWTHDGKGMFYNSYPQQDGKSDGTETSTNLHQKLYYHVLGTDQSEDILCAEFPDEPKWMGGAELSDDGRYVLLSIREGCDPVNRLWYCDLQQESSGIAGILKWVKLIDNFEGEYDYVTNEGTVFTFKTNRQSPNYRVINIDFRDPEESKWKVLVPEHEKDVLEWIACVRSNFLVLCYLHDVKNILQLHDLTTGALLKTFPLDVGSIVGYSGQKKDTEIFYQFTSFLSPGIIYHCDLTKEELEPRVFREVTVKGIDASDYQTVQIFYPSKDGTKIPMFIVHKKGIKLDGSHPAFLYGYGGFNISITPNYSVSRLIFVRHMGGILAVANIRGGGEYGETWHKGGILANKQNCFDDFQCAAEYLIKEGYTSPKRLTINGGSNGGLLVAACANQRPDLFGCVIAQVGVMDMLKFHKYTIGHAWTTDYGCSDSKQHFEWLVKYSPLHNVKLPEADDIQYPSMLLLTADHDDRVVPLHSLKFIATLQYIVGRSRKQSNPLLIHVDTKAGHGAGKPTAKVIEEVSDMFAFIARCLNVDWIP
Procedure: Enzyme activity of DPP4, DPP8, DPP9 (Proteros Biostructures GmbH, Germany) and PREP (Sigma Aldrich, USA) was determined by measuring the initial velocity of AMC release from the fluorogenic substrate GP-AMC (Sigma Aldrich, USA) using a Tecan Spark® 10 M multimode microplate reader (Tecan Group Ltd., Switzerland) in activity buffer (20 mM HEPES/KOH pH 7.3, 110 mM potassium acetate, 2 mM Mg acetate, 0.5 mM EGTA, 0.02% Tween 20, supplemented with 1 mM DTT) and a final volume of 20 μL for maximal 60 min at 30 °C. Prior to activity measurement, 10 nM enzyme was incubated for 45 min at 30 °C and gentle shaking with the inhibitor compounds in concentrations ranging from 0 to 100 μM. The compounds were dissolved in DMSO and diluted in activity buffer (final DMSO concentration: 1%). […]. IC50 values were calculated using Graph-Pad Prism v10.2.3 using the equation: [Inhibitor] vs. response—Variable slope (four parameters). All measurements were performed in triplicates and error bars represent standard errors of the fit.

HeLa wild-type cells = experiment: Cell viability assay (MTT), co-treatment with Mitomycin C; type: cell-based; details: for cell viability normalized for each condition seperately to corresponsing [-MMC +inhibitor] control: +MMC co-treatment, individual replicate values (Supplementary Figure 11b)
Procedure: HeLa wild-type (HeLa Flp-In T-REx WT, kind gift from Prof. Matthias Hentze) and HeLa DPP9^KO cells (prepared in-house) were cultured in DMEM (ThermoFisher, USA) supplemented with 10% FBS (PAN Biotech, Germany), 2 mM L-Glutamin (ThermoFisher, USA) and 1% Penicillin/Streptomycin (100 U mL^−1 Penicillin and 100 µg mL^−1 Streptomycin, ThermoFisher, USA). Cells were seeded in 96-well flat-bottom cell culture plates (Greiner, Germany) at a concentration of 5 × 10^3 cells per well (37 °C and 5% CO2). The indicated concentration of Mitomycin C (MMC, Merck) was added to the cells 24 h after seeding, together with 10 µM of the indicated inhibitor. The inhibitors were refreshed every 24 h. Control cells were treated with DMSO.
Cell viability was measured 72 hours after the MMC treatment. For this, the medium was removed and replaced with phenol-red free DMEM (ThermoFisher, USA) containing 0.5 mg mL^−1 MTT (Sigma Aldrich, USA). Cells were incubated for 30 min at 37 °C, 5% CO2. Subsequently, the medium was removed and replaced by DMSO. The plates were shaken on an orbital shaker for 20 min before measuring the MTT signal on a CARIOstar Plus microplate reader (BMT labtech, Germany). Each experiment was performed three times, each in triplicates.

[12] = Figure 5d S11a, + Ctrl. [+MMC] vs. compound [+MMC], Tukey's multiple comparisons test
[13] = Figure S11b, Ctrl. vs. compound, Uncorrected Fisher's LSD

T2 sequence (P31948 whole entry): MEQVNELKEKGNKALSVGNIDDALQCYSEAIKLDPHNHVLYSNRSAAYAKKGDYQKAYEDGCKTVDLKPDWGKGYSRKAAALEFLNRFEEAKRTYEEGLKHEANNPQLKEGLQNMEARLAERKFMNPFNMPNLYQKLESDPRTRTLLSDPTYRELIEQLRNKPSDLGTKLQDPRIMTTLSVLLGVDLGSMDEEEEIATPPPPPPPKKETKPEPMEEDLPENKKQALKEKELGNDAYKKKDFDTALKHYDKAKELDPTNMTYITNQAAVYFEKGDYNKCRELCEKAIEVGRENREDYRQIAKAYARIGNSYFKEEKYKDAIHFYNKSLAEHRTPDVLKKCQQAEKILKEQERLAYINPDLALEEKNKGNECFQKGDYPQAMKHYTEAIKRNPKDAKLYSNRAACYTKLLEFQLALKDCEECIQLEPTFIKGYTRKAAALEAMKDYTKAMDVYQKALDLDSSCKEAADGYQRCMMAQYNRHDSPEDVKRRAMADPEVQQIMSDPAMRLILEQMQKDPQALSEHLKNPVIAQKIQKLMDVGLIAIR
T9 sequence (Q9NR30 whole entry): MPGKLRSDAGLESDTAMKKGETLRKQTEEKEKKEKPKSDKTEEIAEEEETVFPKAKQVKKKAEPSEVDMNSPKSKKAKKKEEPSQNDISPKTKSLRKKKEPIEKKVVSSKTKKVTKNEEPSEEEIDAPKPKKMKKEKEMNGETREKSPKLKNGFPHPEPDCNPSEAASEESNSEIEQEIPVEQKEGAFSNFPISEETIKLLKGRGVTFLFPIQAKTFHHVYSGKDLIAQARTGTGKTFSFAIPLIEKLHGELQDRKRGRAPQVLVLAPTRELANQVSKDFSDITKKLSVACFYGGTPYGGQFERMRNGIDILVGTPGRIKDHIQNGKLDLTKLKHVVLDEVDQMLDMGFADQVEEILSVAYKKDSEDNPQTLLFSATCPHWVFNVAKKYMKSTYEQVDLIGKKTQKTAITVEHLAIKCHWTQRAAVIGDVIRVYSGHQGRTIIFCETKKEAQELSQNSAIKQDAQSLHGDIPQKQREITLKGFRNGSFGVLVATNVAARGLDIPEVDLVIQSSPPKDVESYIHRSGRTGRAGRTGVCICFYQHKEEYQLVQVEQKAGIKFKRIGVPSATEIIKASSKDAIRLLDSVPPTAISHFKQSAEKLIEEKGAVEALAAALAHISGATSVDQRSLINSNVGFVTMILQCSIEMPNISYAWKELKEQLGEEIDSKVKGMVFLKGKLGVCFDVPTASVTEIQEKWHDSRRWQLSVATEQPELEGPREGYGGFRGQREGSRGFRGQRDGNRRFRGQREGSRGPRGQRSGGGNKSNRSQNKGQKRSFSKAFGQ
T3 sequence (P07814 whole entry): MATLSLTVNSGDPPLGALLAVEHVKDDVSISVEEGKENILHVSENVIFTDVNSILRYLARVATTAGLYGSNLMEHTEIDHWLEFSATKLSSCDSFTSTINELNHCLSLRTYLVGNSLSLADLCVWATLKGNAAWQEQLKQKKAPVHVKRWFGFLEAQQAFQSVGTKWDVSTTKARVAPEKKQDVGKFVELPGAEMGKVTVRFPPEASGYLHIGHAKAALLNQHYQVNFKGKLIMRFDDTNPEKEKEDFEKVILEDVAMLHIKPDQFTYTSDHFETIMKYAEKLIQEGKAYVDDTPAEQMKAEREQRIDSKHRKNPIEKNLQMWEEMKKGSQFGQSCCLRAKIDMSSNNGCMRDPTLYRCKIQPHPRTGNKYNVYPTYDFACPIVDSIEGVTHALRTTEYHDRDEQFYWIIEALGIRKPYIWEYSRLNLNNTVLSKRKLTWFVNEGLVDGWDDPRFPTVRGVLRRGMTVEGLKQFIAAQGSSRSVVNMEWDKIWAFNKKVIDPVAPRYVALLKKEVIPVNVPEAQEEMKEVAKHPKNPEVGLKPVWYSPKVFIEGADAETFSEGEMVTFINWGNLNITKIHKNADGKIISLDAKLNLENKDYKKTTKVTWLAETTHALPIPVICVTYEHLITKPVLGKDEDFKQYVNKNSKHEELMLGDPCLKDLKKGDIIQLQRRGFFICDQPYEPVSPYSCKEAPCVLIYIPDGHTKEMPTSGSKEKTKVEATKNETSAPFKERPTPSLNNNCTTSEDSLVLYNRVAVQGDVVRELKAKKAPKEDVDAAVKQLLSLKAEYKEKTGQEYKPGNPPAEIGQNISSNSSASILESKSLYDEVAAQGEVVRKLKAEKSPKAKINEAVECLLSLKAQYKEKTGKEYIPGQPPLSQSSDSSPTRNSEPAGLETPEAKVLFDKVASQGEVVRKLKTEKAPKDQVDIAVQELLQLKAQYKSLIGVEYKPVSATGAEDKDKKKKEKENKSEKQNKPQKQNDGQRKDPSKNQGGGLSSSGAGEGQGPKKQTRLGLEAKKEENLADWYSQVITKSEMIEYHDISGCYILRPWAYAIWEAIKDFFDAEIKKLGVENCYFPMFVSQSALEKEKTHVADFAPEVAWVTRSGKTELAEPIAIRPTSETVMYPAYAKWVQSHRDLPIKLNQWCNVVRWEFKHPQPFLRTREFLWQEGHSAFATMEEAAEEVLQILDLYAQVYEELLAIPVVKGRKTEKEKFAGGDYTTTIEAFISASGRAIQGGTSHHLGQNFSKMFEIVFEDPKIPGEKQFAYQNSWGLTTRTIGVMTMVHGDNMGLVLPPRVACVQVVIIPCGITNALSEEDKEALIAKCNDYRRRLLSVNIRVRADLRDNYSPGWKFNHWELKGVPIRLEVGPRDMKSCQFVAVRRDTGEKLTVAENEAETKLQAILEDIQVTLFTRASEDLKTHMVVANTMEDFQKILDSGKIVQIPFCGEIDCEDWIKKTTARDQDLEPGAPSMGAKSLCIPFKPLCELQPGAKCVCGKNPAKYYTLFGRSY
T1 sequence (P12277 whole entry): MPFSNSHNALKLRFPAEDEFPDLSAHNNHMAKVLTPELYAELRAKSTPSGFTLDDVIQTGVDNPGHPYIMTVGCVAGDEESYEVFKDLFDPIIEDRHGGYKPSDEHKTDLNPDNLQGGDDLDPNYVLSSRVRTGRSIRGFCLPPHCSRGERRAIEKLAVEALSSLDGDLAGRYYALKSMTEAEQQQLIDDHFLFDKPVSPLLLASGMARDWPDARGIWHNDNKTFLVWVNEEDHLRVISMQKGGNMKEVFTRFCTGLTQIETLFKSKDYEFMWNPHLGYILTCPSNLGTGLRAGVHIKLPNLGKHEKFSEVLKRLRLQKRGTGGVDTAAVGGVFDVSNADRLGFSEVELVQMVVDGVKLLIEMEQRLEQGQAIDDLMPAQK
T6 sequence (P32119 whole entry): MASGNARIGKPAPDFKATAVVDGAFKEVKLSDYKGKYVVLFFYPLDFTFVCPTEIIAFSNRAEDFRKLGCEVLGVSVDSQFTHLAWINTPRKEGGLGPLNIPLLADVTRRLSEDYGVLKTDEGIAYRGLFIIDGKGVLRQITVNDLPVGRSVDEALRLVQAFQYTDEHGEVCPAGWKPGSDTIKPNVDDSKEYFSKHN

Question: How did the “Log2-fold change (9/DMSO)” value [1] turn out when `C#CCCCP(=O)(OCC)N1CCCC(N)C1=O.O=C(O)C(F)(F)F` (mixture of isomers) [Compound 9] was run?
Answer: 0.9157

Question: And the “Log2-fold change (9/DMSO)” value [2]?
Answer: 1.191

Question: And the “Log2-fold change (9/DMSO)” value [3]?
Answer: 0.7172

Question: And the “Log2-fold change (9/DMSO)” value [4]?
Answer: 0.5658

Question: And the “Log2-fold change (9/DMSO)” value [5]?
Answer: 0.2112

Question: And the “Log2-fold change (9/DMSO)” value [6]?
Answer: 0.06438

Question: And the “Log2-fold change (9/DMSO)” value [7]?
Answer: 1.788

Question: What about the “Log2-fold change (9/DMSO)” value [8] of the same molecule?
Answer: -0.9831

Question: And the “Log2-fold change (9/DMSO)” value [9]?
Answer: 0.9591

Question: And the “Log2-fold change (9/DMSO)” value [10]?
Answer: -0.5289

Question: And the “Log2-fold change (9/DMSO)” value [11]?
Answer: 0.1297

Question: What about the IC50 (PREP) of the same molecule?
Answer: 13.4 µM

Question: What about the PREP activity (PREP; c 1562.5 nM) of the same molecule?
Answer: 90.6956% and 100.18% and 91.6611%

Question: What about the PREP activity (PREP; c 3125 nM) of the same molecule?
Answer: 81.4016% and 83.8359% and 86.7341%

Question: What about the PREP activity (PREP; c 6250 nM) of the same molecule?
Answer: 70.1184% and 68.121% and 70.2915%

Question: And the PREP activity (PREP; c 25000 nM)?
Answer: 42.6998% and 39.4794% and 39.8185%

Question: And the PREP activity (PREP; c 50000 nM)?
Answer: 17.1276% and 17.8294% and 21.3954%

Question: And the PREP activity (PREP; c 100000 nM)?
Answer: 12.8608% and 13.0915% and 11.6555%

Question: How did the “cell viability normalized for each condition seperately to corresponsing [-MMC +inhibitor] control” value (HeLa wild-type cells) turn out when `CCCCCCP(=O)(OCC)N1CCC[C@H](N)C1=O` (some centres unmarked) [Compound 5] was run?
Answer: 58.346% and 64.1242% and 71.7486% and 57.5023% and 82.3895% and 73.7368% and 74.46% and 78.7587% and 61.0935%

Question: What about the “95% confidence interval of difference” value (HeLa wild-type cells; [12]) of the same molecule?
Answer: -9,959 to 11,24

Question: And the “95% confidence interval of difference” value (HeLa wild-type cells; [13])?
Answer: -11,45 to 2,173

Question: For `CCCCCc1ccc(SCCP(=O)(OCC)N2CCC[C@H](N)C2=O)cc1.O=C(O)C(F)(F)F` (some centres unmarked) [Compound 16], which “Log2-fold change (16/9)” value [1] is on record?
Answer: -0.7041

Question: What about the “Log2-fold change (16/9)” value [2] of the same molecule?
Answer: -0.3266

Question: What about the “Log2-fold change (16/9)” value [3] of the same molecule?
Answer: -0.09528

Question: What about the “Log2-fold change (16/9)” value [4] of the same molecule?
Answer: -1.91

Question: What about the “Log2-fold change (16/9)” value [5] of the same molecule?
Answer: -0.2717

Question: And the “Log2-fold change (16/9)” value [6]?
Answer: 1.348

Question: And the “Log2-fold change (16/9)” value [7]?
Answer: 0.2888

Question: And the “Log2-fold change (16/9)” value [8]?
Answer: 0.1177

Question: What about the “Log2-fold change (16/9)” value [9] of the same molecule?
Answer: 0.06992

Question: And the “Log2-fold change (16/9)” value [10]?
Answer: -0.1373

Question: And the “Log2-fold change (16/9)” value [11]?
Answer: -0.758

Question: What about the “cell viability normalized for each condition seperately to corresponsing [-MMC +inhibitor] control” value (HeLa wild-type cells) of the same molecule?
Answer: 56.5022% and 55.2183% and 55.934% and 53.6658% and 54.9944% and 49.1952% and 50.7013% and 59.4169% and 66.1488%

Question: What about the “95% confidence interval of difference” value (HeLa wild-type cells; [12]) of the same molecule?
Answer: 1,107 to 22,31

Question: And the “95% confidence interval of difference” value (HeLa wild-type cells; [13])?
Answer: 1,930 to 15,55

Question: And the “effect on cell viability / sensitivity to MMC” value (HeLa wild-type cells; HeLa wild-type, 1 µM MMC + 10 µM inhibitor, 72 h)?
Answer: increase in the sensitivity of cells to genotoxic stress; also recorded: clearly increased the sensitivity of cells to MMC

Question: And the IC50 (PREP)?
Answer: > 50 µM

Question: What about the PREP activity (PREP; c 1562.5 nM) of the same molecule?
Answer: 98.7862% and 85.8025% and 104.946%

Question: What about the PREP activity (PREP; c 3125 nM) of the same molecule?
Answer: 105.742% and 108.717% and 107.921%

Question: And the PREP activity (PREP; c 6250 nM)?
Answer: 96.1256% and 97.1517% and 97.4675%

Question: What about the PREP activity (PREP; c 25000 nM) of the same molecule?
Answer: 92.3447% and 104.519% and 98.6461%

Question: What about the PREP activity (PREP; c 50000 nM) of the same molecule?
Answer: 66.9978% and 69.9305% and 64.8732%

Question: What about the PREP activity (PREP; c 100000 nM) of the same molecule?
Answer: 38.3396% and 47.6921% and 43.692%

Question: And the “activity against PREP” value (PREP; within the nanomolar and low micromolar range (< 50 µM))?
Answer: no activity against PREP
